The text below walks through data of patent publication US20080214606A1, “Methods for the Identification and Use of Compounds Suitable for the Treatment of Drug Resistant Cancer Cells” (The Government of the United States of America as …, priority 2004, published 2008).

The target in one data set is T1, ABCC7 (Homo sapiens, UniProt P13569).
T1 construct: profiled in 60 diverse cancer cell lines (the NCI-60) using real-time RT-PCR; endogenous in cells; host or cells: NCI-60 human cancer cell lines
T1 sequence (P13569 whole entry): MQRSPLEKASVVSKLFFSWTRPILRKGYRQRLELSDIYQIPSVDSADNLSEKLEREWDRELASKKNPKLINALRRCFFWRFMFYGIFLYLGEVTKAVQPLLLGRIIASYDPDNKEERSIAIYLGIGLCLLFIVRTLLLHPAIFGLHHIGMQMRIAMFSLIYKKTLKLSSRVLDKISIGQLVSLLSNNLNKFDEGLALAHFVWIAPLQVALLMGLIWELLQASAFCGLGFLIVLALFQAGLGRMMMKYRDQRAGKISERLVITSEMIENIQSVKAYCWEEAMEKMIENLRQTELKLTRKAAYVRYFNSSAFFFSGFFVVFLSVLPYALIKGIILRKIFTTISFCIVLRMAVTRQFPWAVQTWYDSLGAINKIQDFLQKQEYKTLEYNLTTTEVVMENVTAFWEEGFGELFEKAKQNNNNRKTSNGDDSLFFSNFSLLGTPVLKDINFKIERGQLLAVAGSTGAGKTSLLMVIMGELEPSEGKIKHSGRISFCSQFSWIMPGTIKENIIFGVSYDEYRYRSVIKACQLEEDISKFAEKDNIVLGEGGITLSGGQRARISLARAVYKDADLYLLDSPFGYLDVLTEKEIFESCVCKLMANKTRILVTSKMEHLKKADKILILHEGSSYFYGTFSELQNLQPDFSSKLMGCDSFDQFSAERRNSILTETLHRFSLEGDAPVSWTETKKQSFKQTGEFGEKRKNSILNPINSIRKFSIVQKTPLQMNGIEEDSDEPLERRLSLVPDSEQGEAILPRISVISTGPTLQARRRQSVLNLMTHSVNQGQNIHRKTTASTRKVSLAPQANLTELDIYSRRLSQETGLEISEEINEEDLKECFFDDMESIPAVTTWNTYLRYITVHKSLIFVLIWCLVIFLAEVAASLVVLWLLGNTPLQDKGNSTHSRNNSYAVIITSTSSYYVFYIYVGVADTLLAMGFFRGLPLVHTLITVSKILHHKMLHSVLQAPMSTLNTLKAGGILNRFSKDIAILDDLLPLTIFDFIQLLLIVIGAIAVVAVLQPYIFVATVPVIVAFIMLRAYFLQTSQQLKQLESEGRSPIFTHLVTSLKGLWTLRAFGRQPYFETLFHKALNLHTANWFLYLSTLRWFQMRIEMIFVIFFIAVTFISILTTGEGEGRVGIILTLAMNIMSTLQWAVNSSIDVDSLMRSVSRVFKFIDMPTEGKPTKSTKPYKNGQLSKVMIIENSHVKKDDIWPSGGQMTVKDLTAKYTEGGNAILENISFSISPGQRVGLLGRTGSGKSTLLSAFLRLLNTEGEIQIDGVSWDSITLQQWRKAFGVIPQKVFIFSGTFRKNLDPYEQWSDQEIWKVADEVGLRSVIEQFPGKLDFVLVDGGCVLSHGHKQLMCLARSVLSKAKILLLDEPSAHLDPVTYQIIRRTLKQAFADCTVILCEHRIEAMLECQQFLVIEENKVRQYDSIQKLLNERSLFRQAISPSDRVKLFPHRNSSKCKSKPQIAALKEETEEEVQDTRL
Put plainly: Correlation of ABCC7 expression with drug sensitivity across the NCI-60. Conditions: Pearson correlation of ABCC7 expression with sensitivity of the 60 cell lines; 1429 compounds; inverse, p < 0.0001. The data set is classed as cell-based.

In another data set the target is T2, ABCA3 (Homo sapiens, UniProt Q99758).
T2 construct: profiled in 60 diverse cancer cell lines (the NCI-60) using real-time RT-PCR; endogenous in cells; host or cells: NCI-60 human cancer cell lines
The experiment in a line: Correlation of ABCA3 expression with drug sensitivity across the NCI-60. The format is cell-based. Conditions: Pearson correlation of ABCA3 expression with sensitivity of the 60 cell lines; 1429 compounds; inverse, p < 0.0001.

For data set [1], the system named is KB-V1 cells (over-express MDR1-P-gp) vs parental KB-3-1 cells. Put plainly: MTT assay using the KB-3-1/KB-V1 cell pair. The format is cell-based, human. How it is done: Cell survival is measured by the MTT (3-(4,5-Dimethylthiazol-2-yl)-2,5-diphenyltetrazolium) Assay. Cells are seeded in 100 μl medium at a density of 5000 cells/well in 96 well plates, and serially diluted drug (with or without 2 μM PSC 833) is added the following day in 100 μl medium to give the indicated final concentration. Cells are then incubated for 72 hrs at 37° C. in 5% CO2, and the MTT assay is performed according to the manufacturer's instructions (Molecular Probes, Eugene, Oreg.).
To test whether our approach using the NCI-60 does, in fact, identify new substrates, an MTT assay is used to test all top-scoring compounds that were available from DTP for follow-up experiments. KB-3-1, a human carcinoma cell line, and KB-V1, a multidrug resistant derivative of KB-3-1 that over-expresses MDR1-P-gp (Shen et al., 1986, J. Biol. Chem. 261:7762-7770), are used for the tests. […] This resistance of KB-V-1 cells is invariably reversible by PSC 833. The intrinsic fluorescence of one of the compounds, NSC 634791, allows for the measurement of the effect of MDR1 activity on its export from cells.

A further data set concerns the target ABCB1 (Homo sapiens, UniProt P08183). The experiment in a line: Correlation of ABCB1 expression with drug sensitivity across the NCI-60. In outline:
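SYBR Green real-time RT-PCR on 150 ng total RNA with 250 nM primers: RT 20 min at 50 °C, then 45 cycles; expression taken as crossing-point cycle number. Correlated with drug sensitivity of 1429 compounds across the cell panel; permutation p-values with step-down and step-up (FDR q-value) multiple-testing correction.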

The target of a further data set is T3, ABCC2 (Homo sapiens, UniProt Q92887).
T3 construct: profiled in 60 diverse cancer cell lines (the NCI-60) using real-time RT-PCR; endogenous in cells; host or cells: NCI-60 human cancer cell lines
Put plainly: Correlation of ABCC2 expression with drug sensitivity across the NCI-60. The format is cell-based. As to conditions: Pearson correlation of ABCC2 expression with sensitivity of the 60 cell lines; 1429 compounds; inverse, p < 0.0001.

Another data set deals with T4, ABCC3 (Homo sapiens, UniProt O15438).
T4 construct: profiled in 60 diverse cancer cell lines (the NCI-60) using real-time RT-PCR; endogenous in cells; host or cells: NCI-60 human cancer cell lines
T4 sequence (O15438 whole entry): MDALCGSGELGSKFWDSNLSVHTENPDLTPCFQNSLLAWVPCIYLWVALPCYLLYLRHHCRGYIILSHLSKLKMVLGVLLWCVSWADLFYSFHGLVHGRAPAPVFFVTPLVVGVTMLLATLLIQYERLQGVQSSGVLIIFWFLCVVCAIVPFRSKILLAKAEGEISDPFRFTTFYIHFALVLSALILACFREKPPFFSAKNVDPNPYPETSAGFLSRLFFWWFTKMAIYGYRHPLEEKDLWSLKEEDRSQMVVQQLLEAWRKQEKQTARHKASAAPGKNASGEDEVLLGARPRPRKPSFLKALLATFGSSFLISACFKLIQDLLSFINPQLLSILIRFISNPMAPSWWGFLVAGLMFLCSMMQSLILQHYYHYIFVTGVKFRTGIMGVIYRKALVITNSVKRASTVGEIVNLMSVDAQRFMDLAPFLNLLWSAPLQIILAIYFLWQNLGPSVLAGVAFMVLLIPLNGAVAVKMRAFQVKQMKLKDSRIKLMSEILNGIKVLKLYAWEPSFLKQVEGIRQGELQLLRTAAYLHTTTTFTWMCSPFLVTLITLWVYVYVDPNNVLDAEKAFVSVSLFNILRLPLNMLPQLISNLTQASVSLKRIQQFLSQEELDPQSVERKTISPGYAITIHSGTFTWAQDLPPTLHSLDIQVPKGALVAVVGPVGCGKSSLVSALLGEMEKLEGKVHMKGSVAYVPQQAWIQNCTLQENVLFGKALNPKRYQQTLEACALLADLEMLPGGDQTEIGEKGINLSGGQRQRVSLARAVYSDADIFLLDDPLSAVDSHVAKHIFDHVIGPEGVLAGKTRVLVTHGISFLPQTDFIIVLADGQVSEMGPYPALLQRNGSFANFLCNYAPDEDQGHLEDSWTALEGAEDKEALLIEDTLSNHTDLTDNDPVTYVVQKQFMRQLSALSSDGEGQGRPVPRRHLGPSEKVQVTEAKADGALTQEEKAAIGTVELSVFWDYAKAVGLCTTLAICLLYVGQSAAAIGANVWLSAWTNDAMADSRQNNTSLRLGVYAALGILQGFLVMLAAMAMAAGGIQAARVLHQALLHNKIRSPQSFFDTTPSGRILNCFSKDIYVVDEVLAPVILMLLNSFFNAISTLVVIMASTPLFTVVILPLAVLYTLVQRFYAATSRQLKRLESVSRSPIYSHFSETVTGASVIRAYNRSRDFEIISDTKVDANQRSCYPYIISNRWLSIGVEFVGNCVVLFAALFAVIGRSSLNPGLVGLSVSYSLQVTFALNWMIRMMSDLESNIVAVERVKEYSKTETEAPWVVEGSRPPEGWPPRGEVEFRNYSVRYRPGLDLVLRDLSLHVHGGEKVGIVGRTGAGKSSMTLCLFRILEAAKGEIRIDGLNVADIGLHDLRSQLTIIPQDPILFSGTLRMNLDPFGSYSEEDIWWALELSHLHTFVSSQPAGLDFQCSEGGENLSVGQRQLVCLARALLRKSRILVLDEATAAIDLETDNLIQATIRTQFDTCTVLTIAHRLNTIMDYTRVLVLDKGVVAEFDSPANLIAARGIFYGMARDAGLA
The experiment in a line: Correlation of ABCC3 expression with drug sensitivity across the NCI-60. The data set is classed as cell-based. Conditions: Pearson correlation of ABCC3 expression with sensitivity of the 60 cell lines; 1429 compounds; inverse, p < 0.0001.

The target in the next data set is T5, ABCD1 (Homo sapiens, UniProt P33897).
T5 construct: profiled in 60 diverse cancer cell lines (the NCI-60) using real-time RT-PCR; endogenous in cells; host or cells: NCI-60 human cancer cell lines
T5 sequence (P33897 whole entry): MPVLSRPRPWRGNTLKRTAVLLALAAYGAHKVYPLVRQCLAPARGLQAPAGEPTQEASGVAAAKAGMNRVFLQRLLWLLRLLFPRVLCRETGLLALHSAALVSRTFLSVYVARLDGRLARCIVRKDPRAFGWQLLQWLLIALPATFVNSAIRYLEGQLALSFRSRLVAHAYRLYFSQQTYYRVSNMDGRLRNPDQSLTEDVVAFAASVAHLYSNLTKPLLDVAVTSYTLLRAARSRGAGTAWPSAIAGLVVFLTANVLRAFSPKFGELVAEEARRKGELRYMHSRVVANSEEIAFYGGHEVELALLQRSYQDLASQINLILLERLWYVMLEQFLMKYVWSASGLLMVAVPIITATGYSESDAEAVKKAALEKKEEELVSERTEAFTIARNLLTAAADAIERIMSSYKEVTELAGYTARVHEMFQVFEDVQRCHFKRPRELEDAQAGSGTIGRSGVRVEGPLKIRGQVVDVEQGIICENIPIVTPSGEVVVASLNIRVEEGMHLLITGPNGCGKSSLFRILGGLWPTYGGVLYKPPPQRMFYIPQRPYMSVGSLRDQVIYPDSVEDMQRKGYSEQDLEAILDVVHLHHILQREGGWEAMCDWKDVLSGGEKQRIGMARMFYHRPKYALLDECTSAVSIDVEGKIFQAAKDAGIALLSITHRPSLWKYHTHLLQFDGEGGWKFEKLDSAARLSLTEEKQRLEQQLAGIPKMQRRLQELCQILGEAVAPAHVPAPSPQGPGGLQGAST
Put plainly: Correlation of ABCD1 expression with drug sensitivity across the NCI-60. The format is cell-based. As to conditions: Pearson correlation of ABCD1 expression with sensitivity of the 60 cell lines; 1429 compounds; inverse, p < 0.0001.

Sequence of ABCB1 (P08183 whole entry): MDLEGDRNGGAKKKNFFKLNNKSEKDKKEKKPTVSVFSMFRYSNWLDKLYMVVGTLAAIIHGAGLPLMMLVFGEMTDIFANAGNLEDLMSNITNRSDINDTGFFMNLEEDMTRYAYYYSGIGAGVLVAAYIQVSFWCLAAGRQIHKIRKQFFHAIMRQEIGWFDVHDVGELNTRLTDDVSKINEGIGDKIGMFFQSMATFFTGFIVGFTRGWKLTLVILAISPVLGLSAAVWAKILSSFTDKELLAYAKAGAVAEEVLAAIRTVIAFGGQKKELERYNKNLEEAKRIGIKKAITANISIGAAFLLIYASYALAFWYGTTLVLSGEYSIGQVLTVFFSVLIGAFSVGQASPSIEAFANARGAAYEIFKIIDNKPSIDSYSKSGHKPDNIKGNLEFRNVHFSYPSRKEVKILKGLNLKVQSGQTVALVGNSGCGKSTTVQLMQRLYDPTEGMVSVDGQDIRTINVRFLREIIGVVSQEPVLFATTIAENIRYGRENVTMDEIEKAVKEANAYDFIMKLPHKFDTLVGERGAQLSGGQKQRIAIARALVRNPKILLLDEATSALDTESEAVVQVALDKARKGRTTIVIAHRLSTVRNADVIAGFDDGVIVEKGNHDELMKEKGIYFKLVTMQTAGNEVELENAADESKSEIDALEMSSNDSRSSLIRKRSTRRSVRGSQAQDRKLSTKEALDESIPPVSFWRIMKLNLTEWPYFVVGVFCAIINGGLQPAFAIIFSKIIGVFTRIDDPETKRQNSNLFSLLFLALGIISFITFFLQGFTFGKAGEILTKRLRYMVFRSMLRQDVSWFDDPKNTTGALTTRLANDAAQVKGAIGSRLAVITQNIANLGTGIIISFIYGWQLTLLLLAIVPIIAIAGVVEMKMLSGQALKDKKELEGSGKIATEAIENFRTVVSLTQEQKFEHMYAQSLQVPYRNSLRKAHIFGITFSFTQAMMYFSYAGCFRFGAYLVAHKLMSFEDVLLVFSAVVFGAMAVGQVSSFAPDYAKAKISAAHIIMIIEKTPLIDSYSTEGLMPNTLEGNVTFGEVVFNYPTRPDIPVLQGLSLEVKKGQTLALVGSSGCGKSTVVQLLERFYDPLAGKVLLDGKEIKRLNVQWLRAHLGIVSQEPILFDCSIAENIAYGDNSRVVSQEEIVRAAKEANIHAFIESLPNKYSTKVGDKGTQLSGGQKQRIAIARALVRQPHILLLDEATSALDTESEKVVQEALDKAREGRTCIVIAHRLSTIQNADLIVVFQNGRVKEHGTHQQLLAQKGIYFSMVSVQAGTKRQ
Method for ABCA3: (§1) Expression levels are measured by real-time quantitative RT-PCR using the LightCycler RNA Amplification SYBR Green kit and a LightCycler machine (Roche Biochemicals, Indianapolis, Ind.). […] When possible, the amplicons are designed to encompass exon-intron boundaries to avoid amplification of genomic DNA. Since the Syber Green assay detects accumulation of double stranded DNA, primers are selected (from a battery consisting of about 200 primers) that amplified a single product of the correct size.
(§2) RT-PCR is carried out on 150 ng total RNA, in the presence of 250 nM specific primers. Following reverse transcription (20 min at 50° C.), the PCR reaction consists of 45 cycles of denaturation (15 sec at 95° C.), annealing (30 sec at 58° C.), and elongation (30 sec at 72° C.). No-template (water) reaction mixtures are prepared as negative controls.
(§3) During PCR amplification, fluorescence emission is measured and recorded in real time by the LightCycler. Crossing point values are calculated, using the LightCycler software package, by the Fit Points analysis method, with baseline fluorescence set at 1. The SyberGreen assay measures accumulation of double-stranded products, and the appearance of primer dimers limits quantitation at high cycle numbers. The specificity of amplified products is verified by melting-curve analysis and agarose gel electrophoresis (not shown). The raw results are expressed as number of cycles to reach the crossing point. If the desired product is not detected, the corresponding value is adjusted to crossing points indicating no expression. To assess the contribution of experimental artifacts, selected cell lines are assessed in replicate.
(§4) The two are combined to form a joint dataset that includes 1429 compounds.
(§5) To determine quantitatively how well the 47 genes cluster the cell lines by their tissues of origin, a statistical method is employed wherein the kappa statistic is used to indicate how well the observed clusters correspond to the nine tissue-of-origin classifications. […] To control the overall false type 1 error rate, both a step-down procedure (Westfall and Young, 1993, Resampling-Based Multiple Testing: Examples and Methods for p-value Adjustment (New York: Wiley)) and a step-up procedure (Reiner et al., 2003, Bioinformatics 19:368-375) were employed to adjust for multiple testing of all 47 genes simultaneously. In the Benjamini-Hochberg procedure the p-values are computed in the standard way by permutation, assuming that all distributions are exchangeable: the number of values in the permuted data with correlations over a threshold, divided by the number of compounds and by the number of permutations. In this analysis, the False Discovery Rate (q-value) at which each compound would be declared was calculated using the step-up procedure for positively correlated test statistics (again true because all correlations being compared are computed against the same ABC gene): in this procedure the first q-value for the largest correlation is the Bonferroni-corrected p-value for that gene; then further q-values are calculated as qj=max(pj*1429/j, qj-1). This procedure limits the expected proportion of false positives in the list 1, . . . , j to at most qj.
Method for ABCC2: as §1, §2, §3, §4, §5
Method for ABCC3: as §1, §2, §3, §4, §5
Method for ABCC7: as §1, §2, §3, §4, §5
Method for ABCD1: as §1, §2, §3, §4, §5

`CC12CCC(CC1)C(C)(C)O2` [NSC 6171]: the Correlation at ABCC7 is on record as −0.4552.
As for `CC[C@]1(O)C[C@@H]2CN(CCc3c([nH]c4ccccc34)[C@@](C(=O)OC)(c3cc4c(cc3OC)N(C)[C@H]3[C@@](O)(C(=O)OC)[C@H](OC(C)=O)[C@]5(CC)C=CCN6CC[C@]43[C@@H]65)C2)C1.O=S(=O)(O)O` [NSC 49842], the Correlation at ABCA3 is recorded as −0.3678.
`COc1ccc(NC(=S)N=Nc2c(O)[nH]c3c(Cl)cc(Cl)cc23)cc1` [NSC 73304]: the “Effect of PSC 833 on the heightened sensitivity of KB-V1 cells” value in data set [1] (MTT assay with 2 μM PSC 833) is listed as “completely reverses sensitivity”. Besides, in data set [1] (MTT assay, 72 hrs), the “Sensitivity of KB-V1 cells relative to parental KB-3-1 (potentiation by ABCB1)” value was “several-fold more sensitive”.
As for `NC(=S)N=Nc1c(O)[nH]c2c(Cl)cc(Cl)cc12` [NSC 73305], the “Effect of PSC 833 on the heightened sensitivity of KB-V1 cells” value in data set [1] (MTT assay with 2 μM PSC 833) is “completely reverses sensitivity”. Also, in data set [1] (MTT assay, 72 hrs), the “Sensitivity of KB-V1 cells relative to parental KB-3-1 (potentiation by ABCB1)” value was “several-fold more sensitive”.
Take `Cc1c2ccnc(-c3ccccc3)c2cc2c1[nH]c1ccccc12` [NSC 86715]: the “Correlation of antiproliferative activity with ABCB1 expression” value on ABCB1 is 0.5323. Moreover, the Correlation at ABCC7 is reported as −0.5696.
As to `O=[N+]([O-])c1cccc(/C=N/Nc2ccc3ccccc3n2)c1O` [NSC 168468], at ABCB1, the “Correlation of antiproliferative activity with ABCB1 expression” value worked out at 0.4839. Moreover, the “Effect of PSC 833 on the heightened sensitivity of KB-V1 cells” value in data set [1] (MTT assay with 2 μM PSC 833) is recorded as “completely reversed sensitivity”. Besides, the “Sensitivity of KB-V1 cells relative to parental KB-3-1 (potentiation by ABCB1)” value in data set [1] (MTT assay, 72 hrs) is recorded as “equivalent to or greater than the potentiation effect observed for NSC 73306”.
With `COc1ccc(O)c2c(=O)c3c(OC)cc4c(c3oc12)[C@@H]1C=CO[C@@H]1O4` [NSC 178249], the Correlation at ABCC7 is −0.5603.
Regarding `COc1cc(C(=O)N[C@H]2CCc3cc(OC)c(OC)c(OC)c3-c3ccc(OC)c(=O)cc32)cc(OC)c1OC` [NSC 355256], the Correlation on ABCA3 is −0.3769.
Consider `O=C1c2cccc(NCCNCCO)c2C(=O)c2cccc(NCCNCCO)c21` [NSC 363997], for which the “Effect of PSC 833 on the resistance of KB-V1 cells” value in data set [1] (MTT assay with 2 μM PSC 833) is “reverses the resistance”. Also, the “Resistance of KB-V1 cells in comparison with the parental line” value in data set [1] (MTT assay, 72 hrs) is recorded as “resistant”.
The compound `COc1cc2c(c(OC(C)=O)c1OC(C)=O)-c1ccc(SC)c(=O)cc1C(NC(C)=O)CC2` (stereo not shown) [NSC 374979] returned a Correlation at ABCA3 of −0.4573.
The compound `COc1cccc2c1C(=O)C=CC2=O` [NSC 618315] gave a Correlation at ABCC2 of −0.4247.
With `CC(C)(C)c1nc2c(o1)C(=Nc1ccc(F)cc1)c1ccccc1C2=O` [NSC 626030], the Correlation at ABCC7 was −0.5025.
On ABCC7, `COc1cc2cc[n+]3c(c2cc1OC)C(=O)c1ccccc1-3` [NSC 627787] displayed a Correlation of −0.5471.
On ABCC3, `Cn1c(=O)nc2n(-c3ccc(Cl)cc3)c3cc(Cl)ccc3nc-2c1=O` [NSC 627991] gave a Correlation of −0.4741.
`CCCCCCCCCCCCCC(=O)NO` [NSC 634458] registered a Correlation on ABCC2 of −0.4326.
`COC(=O)[C@@]12C(=O)C=CC(=O)[C@@H]1C1C(=CC2COC(C)=O)O[C@@H]2OC3(CCCCC3)O[C@H]12` (stereo partly shown) [NSC 637399] returned a Correlation at ABCC2 of −0.4969.
Turning to `CN(C)CCC(=O)N1C/C(=C\c2ccc(Cl)c(Cl)c2)C(=O)/C(=C/c2ccc(Cl)c(Cl)c2)C1.Cl` [NSC 638645], the Correlation at ABCC2 is listed as −0.5028.
`CCN(CC)CC(O)CNc1ccc(NCC2CO2)c2c1C(=O)c1ccccc1C2=O` (stereo not shown) [NSC 639366]: the Correlation on ABCC3 is given as −0.5003.
Compound `COc1cc(/C=C2\CCC(CN(C)C)C2=O)ccc1OC(=O)c1ccccc1.Cl` (stereo not shown) [NSC 639518] came in with a Correlation at ABCC2 of −0.4350.
At ABCC2, `CC(C)Cc1ccc(C(C)/C=C2\CCC(CN3CCOCC3)C2=O)cc1.Cl` (stereo not shown) [NSC 639976] yielded a Correlation of −0.4670.
With `CC(C)Cc1ccc(C(C)/C=C2\CCC(CN3CCCCC3)C2=O)cc1.Cl` (stereo not shown) [NSC 639978], the Correlation at ABCC2 is recorded as −0.5210.
For `O=C(CC(=O)c1ccccc1NC1=Cc2ccccc2C(=O)C1=O)C(=O)NC1=C(Cl)C(=O)c2ccccc2C1=O` [NSC 641245], the Correlation at ABCC3 is −0.5702.
Same read-out and setting: the figure for `CC(C)(C)NNc1c([N+](=O)[O-])cnn(-c2ccccc2)c1=O` [NSC 641820] is −0.3991.
In turn, `CC1CSC(=S)N1C(=O)N1C(=S)SCC1C` (stereo not shown) [NSC 654968] displayed a Correlation at ABCC7 of −0.5519.
`CC(=O)O[C@@]12CO[C@@H]1CC(O)[C@@]1(C)C(=O)[C@H](O)C3=C(C)C(O)C[C@@](O)(C(OC(=O)c4ccccc4)C12)C3(C)C` (stereo partly shown) [NSC 656178] registered a Correlation at ABCA3 of −0.4318.
On to `O=C1C=C(N2CCN(c3ccccn3)CC2)C(=O)c2c(O)ccc(O)c21` [NSC 658142], for which the Correlation is given as −0.4017 at ABCA3 and −0.4982 on ABCC3.
Consider `CC(=O)NC1=CC(=O)c2cc(C)cc(O)c2C1=O` [NSC 658450], for which the Correlation at ABCC3 is given as −0.5526.
The same measure, in the same setting: the figure for `CCOC(=O)/C(C#N)=C/c1ccc2c(c1)CC1(C2)Cc2cc(CC)c(C(C)O)cc2C1` (stereo not shown) [NSC 670289] is −0.3824.
For `COC(=O)CCC(=O)NC1=C(Nc2ccc(OC)cc2)C(=O)c2ccccc2C1=O` [NSC 670766], the Correlation on ABCC7 is reported as −0.4378.
`CC(=O)O[C@H]1C(=O)[C@@]2(C)[C@H]([C@H](OC(=O)c3ccco3)[C@]3(O)C[C@H](OC(=O)[C@H](O)[C@@H](NC(=O)c4ccccc4)c4ccccc4)C(C)=C1C3(C)C)[C@]1(OC(C)=O)CO[C@@H]1C[C@@H]2O` [NSC 673187] came in with a Correlation at ABCA3 of −0.3896.
For the compound `Cc1ccc(C2=CC(=O)/C(=C\C(=O)c3ccc(Br)cc3)O2)c(C)c1` [NSC 674919], the Correlation at ABCC2 is recorded as −0.4608.
Compound `CC(C)OC(=O)c1ccc(CCC2=CC(=O)C=CC2=O)cc1` [NSC 684496] displayed a Correlation at ABCC2 of −0.4340.
Compound `CC1(C)OC2C(CO[Si](C)(C)C(C)(C)C)OC(n3cnc4c(N)nc(C#C[Si](C)(C)C)nc43)C2O1` (stereo not shown) [NSC 687496] gave a Correlation on ABCC2 of −0.4544.
For the compound `CCCCCCOc1ccc(C(=O)NO)cc1` [NSC 692754], the “Pearson's Correlation Coeff” value at ABCB1 worked out at 0.4616. Besides, the Correlation on ABCC2 is on record as −0.4016; on ABCD1, −0.4680.
In turn, `CCOC(=O)c1oc2cc3c(c4c2c1-c1ccccc1N4C)C=CC(C)(C)O3` [NSC 693215] gave a Correlation at ABCC2 of −0.4377.
`CC(=O)Oc1c2ccsc2c(OC(C)=O)c2ccsc12` [NSC 695914] yielded a Correlation on ABCC7 of −0.4297.
At ABCC2, `CC1=NN(c2nc(N)nc(CBr)n2)C(C)(C)C1` [NSC 696916] yielded a Correlation of −0.4224.
